pIC50, pKi: −log10 of the molar value.
Assays:
[1] = target: 5-hydroxytryptamine receptor 2B (Homo sapiens, UniProt P41595); type: cell membranes, CHO-K1, Membrane; conditions: for IC50: cho-k1; on all read-outs here: in other assays of this panel Not Active means under 50% inhibition at 10 µM
[2] = target: cGMP-specific 3',5'-cyclic phosphodiesterase (Homo sapiens, UniProt O76074); assay: DRUGMATRIX: Phosphodiesterase PDE5 enzyme inhibition (substrate: [3H]cGMP + cGMP); type: tissue-based; conditions: platelet; Not Active = under 50% inhibition at 10 µM
[3] = DRUGMATRIX: Sodium/nucleoside co-transporter radioligand binding (ligand: nitrobenzylthioinosine); type: cell membranes, Cavia porcellus, Dunkin-Hartley, Cerebral cortex, Membrane; conditions: Not Active = under 50% inhibition at 10 µM
[4] = target: Vascular endothelial growth factor receptor 1 (Homo sapiens, UniProt P17948); type: cell-based; conditions: huvec; further: in other assays of this panel Not Active means under 50% inhibition at 10 µM
[5] = target: T1, C-X-C chemokine receptor type 1 (Homo sapiens, UniProt P25024); further: in other assays of this panel Not Active means under 50% inhibition at 10 µM
T1 sequence (P25024 whole entry): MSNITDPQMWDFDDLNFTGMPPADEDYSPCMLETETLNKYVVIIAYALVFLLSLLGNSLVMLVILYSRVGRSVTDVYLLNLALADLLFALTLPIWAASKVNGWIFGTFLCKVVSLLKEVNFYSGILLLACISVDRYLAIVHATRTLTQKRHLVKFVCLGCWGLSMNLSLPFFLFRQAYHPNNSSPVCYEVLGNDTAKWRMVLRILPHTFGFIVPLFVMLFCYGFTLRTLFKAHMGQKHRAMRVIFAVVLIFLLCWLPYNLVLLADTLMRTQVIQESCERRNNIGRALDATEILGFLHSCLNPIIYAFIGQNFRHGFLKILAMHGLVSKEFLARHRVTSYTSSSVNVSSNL

[6] = target: T2, Alpha-1B adrenergic receptor (Rattus norvegicus, UniProt P15823); assay: DRUGMATRIX: Alpha-1B adrenergic receptor radioligand binding (ligand: prazosin); type: cell membranes, Wistar, Liver, Membrane; conditions: Not Active = under 50% inhibition at 10 µM
T2 sequence (P15823 whole entry): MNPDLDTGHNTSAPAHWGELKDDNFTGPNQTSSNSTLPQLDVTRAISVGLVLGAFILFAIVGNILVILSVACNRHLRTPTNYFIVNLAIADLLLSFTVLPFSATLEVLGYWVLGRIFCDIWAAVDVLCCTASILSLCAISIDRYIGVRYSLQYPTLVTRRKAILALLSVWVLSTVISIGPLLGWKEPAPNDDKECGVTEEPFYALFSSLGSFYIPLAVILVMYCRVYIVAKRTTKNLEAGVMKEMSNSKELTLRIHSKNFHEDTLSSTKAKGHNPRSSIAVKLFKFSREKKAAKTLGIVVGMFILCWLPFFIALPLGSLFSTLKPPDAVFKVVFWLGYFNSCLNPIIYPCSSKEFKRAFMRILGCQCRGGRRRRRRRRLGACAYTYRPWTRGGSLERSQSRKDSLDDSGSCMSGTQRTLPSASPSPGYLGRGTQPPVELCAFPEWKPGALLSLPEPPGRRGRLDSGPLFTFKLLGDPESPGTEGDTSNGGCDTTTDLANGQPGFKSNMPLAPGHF

[7] = target: T3, Amine oxidase [flavin-containing] A (Homo sapiens, UniProt P21397); assay: DRUGMATRIX: Monoamine Oxidase MAO-A enzyme inhibition (substrate: Kynuramine); design: species or system BTI-TN-5B1-4; conditions: bti-tn-5b1-4; Not Active = under 50% inhibition at 10 µM
T3 sequence (P21397 whole entry): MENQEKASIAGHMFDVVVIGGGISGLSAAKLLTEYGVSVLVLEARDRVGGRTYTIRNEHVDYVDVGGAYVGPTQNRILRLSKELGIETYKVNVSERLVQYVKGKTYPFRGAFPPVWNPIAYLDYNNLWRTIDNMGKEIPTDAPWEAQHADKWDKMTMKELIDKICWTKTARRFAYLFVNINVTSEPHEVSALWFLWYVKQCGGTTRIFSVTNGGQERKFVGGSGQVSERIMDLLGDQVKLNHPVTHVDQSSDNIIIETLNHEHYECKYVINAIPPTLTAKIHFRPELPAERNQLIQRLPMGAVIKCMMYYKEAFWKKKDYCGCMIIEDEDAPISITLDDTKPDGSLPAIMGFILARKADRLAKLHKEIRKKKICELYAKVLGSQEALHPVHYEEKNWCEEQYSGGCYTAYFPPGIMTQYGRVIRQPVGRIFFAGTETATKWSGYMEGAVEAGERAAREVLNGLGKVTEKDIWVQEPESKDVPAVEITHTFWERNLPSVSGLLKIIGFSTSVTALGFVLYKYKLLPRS

[8] = DRUGMATRIX: Phosphodiesterase PDE3 enzyme inhibition (substrate: [3H]cAMP + cAMP); type: tissue-based, Homo sapiens; conditions: platelet; Not Active = under 50% inhibition at 10 µM

5-hydroxytryptamine receptor 2B, sequence (P41595 whole entry): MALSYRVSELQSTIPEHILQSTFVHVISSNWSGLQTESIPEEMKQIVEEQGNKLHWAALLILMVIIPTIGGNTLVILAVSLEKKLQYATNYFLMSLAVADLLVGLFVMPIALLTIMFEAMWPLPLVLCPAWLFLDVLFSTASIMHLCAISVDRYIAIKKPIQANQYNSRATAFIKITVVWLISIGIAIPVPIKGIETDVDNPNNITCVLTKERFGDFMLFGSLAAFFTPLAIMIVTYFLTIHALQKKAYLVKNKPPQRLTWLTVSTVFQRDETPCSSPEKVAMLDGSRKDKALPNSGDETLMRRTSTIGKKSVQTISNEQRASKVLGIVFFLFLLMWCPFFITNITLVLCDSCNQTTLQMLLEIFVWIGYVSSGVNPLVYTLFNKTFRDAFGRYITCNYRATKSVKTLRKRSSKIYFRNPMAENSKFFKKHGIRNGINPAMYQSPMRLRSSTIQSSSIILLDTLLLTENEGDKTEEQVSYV
Vascular endothelial growth factor receptor 1, sequence (P17948 whole entry): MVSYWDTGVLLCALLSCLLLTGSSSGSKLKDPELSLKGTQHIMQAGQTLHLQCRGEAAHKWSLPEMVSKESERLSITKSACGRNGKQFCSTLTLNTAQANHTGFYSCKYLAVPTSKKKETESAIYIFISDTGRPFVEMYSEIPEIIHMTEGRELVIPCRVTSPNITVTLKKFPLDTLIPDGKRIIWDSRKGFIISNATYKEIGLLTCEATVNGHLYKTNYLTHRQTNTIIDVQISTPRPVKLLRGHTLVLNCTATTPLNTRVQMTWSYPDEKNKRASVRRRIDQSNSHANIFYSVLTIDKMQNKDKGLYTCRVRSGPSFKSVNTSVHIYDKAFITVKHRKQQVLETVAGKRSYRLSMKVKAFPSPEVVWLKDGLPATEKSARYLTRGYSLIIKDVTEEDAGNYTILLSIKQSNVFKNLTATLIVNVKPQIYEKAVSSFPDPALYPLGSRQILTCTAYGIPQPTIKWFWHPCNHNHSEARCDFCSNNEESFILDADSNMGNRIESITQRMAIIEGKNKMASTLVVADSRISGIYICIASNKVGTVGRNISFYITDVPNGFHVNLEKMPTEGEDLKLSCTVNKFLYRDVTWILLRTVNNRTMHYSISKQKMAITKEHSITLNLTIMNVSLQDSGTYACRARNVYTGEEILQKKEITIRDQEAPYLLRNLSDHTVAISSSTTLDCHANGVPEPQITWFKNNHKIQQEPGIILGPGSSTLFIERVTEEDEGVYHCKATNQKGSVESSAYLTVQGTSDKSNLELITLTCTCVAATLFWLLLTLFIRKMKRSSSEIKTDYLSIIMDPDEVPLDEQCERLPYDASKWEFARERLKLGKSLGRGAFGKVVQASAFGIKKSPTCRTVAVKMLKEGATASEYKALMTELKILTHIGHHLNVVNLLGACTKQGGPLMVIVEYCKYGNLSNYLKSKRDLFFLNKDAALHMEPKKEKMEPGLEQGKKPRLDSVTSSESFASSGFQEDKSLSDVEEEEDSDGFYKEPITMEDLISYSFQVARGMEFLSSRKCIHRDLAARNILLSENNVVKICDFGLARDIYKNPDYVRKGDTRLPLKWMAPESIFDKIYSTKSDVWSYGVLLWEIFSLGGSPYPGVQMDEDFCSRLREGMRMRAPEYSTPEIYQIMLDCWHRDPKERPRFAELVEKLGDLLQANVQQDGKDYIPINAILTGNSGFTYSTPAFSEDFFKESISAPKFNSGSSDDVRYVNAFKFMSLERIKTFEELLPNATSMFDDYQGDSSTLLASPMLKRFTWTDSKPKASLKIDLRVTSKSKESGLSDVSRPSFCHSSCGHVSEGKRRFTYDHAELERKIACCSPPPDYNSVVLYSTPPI

SMILES	IC50 [1]	IC50 [2]	IC50 [3]	Ki [3]	IC50 [4]	IC50 [5]	IC50 [6]	IC50 [7]	IC50 [8]	Ki [8]	pIC50 ([1]; read-out: IC50)	pKi ([1]; read-out: Ki)	pIC50 ([6]; read-out: IC50)	pKi ([6]; read-out: Ki)
CNNCc1ccc(C(=O)NC(C)C)cc1 [PROCARBAZINE]	Not Active	Not Active	Not Active	Not Active	Not Active	Not Active	Not Active	Not Active	Not Active	Not Active	–	–	–	–
CN(C)c1nc(N(C)C)nc(N(C)C)n1 [ALTRETAMINE]	Not Active	Not Active	Not Active	Not Active	Not Active	Not Active	Not Active	Not Active	Not Active	Not Active	–	–	–	–
OC(Cn1cncn1)(Cn1cncn1)c1ccc(F)cc1F [FLUCONAZOLE]	Not Active	Not Active	Not Active	Not Active	Not Active	Not Active	Not Active	Not Active	Not Active	Not Active	–	–	–	–
C[C@]12CCC(=O)C=C1CC[C@@H]1[C@@H]2CC[C@@]2(C)[C@H]1CC[C@]2(C)O [METHYLTESTOSTERONE]	Not Active	Not Active	Not Active	Not Active	Not Active	Not Active	Not Active	Not Active	Not Active	Not Active	–	–	–	–
O=c1oc2ccccc2c(O)c1Cc1c(O)c2ccccc2oc1=O [DICUMAROL]	Not Active	Not Active	Not Active	Not Active	Not Active	Not Active	Not Active	Not Active	Not Active	Not Active	–	–	–	–
N=C(N)NCCN1CCCCCCC1 [GUANETHIDINE]	Not Active	Not Active	Not Active	Not Active	Not Active	Not Active	Not Active	Not Active	Not Active	Not Active	–	–	–	–
Cc1cc(C2CCCCC2)n(O)c(=O)c1 [CICLOPIROX]	Not Active	Not Active	Not Active	Not Active	Not Active	Not Active	Not Active	Not Active	Not Active	Not Active	–	–	–	–
CCOc1ccc(NC(C)=O)cc1 [PHENACETIN]	Not Active	Not Active	Not Active	Not Active	Not Active	Not Active	Not Active	Not Active	Not Active	Not Active	–	–	–	–
NC1=NC(=O)C(c2ccccc2)O1 (configuration not stated) [PEMOLINE]	Not Active	Not Active	Not Active	Not Active	Not Active	Not Active	Not Active	Not Active	Not Active	Not Active	–	–	–	–
C[C@H](CCC(=O)O)[C@H]1CC[C@H]2[C@@H]3[C@H](O)C[C@@H]4C[C@H](O)CC[C@]4(C)[C@H]3C[C@H](O)[C@]12C [CHOLIC ACID]	Not Active	Not Active	Not Active	Not Active	Not Active	Not Active	Not Active	Not Active	Not Active	Not Active	–	–	–	–
CC(C)C(Br)C(=O)NC(N)=O (configuration not stated) [BROMISOVALUM]	Not Active	Not Active	Not Active	Not Active	Not Active	Not Active	Not Active	Not Active	Not Active	Not Active	–	–	–	–
C[C@H]1c2cccc(O)c2C(=O)C2=C(O)[C@]3(O)C(=O)C(C(N)=O)=C(O)[C@@H](N(C)C)[C@@H]3[C@@H](O)[C@@H]21.O [DOXYCYCLINE]	Not Active	Not Active	Not Active	Not Active	Not Active	Not Active	Not Active	Not Active	Not Active	Not Active	–	–	–	–
CNCCCN1c2ccccc2CCc2ccccc21 [DESIPRAMINE]	Not Active	Not Active	Not Active	Not Active	Not Active	Not Active	Not Active	Not Active	Not Active	Not Active	–	–	–	–
C[C@H](CS)C(=O)N1CCC[C@H]1C(=O)O [CAPTOPRIL]	Not Active	Not Active	Not Active	Not Active	Not Active	Not Active	Not Active	Not Active	Not Active	Not Active	–	–	–	–
CC(O)CO (configuration not stated) [PROPYLENE GLYCOL]	Not Active	Not Active	Not Active	Not Active	Not Active	Not Active	Not Active	Not Active	Not Active	Not Active	–	–	–	–
Cc1c(O)c(=O)ccn1C [DEFERIPRONE]	Not Active	Not Active	Not Active	Not Active	Not Active	Not Active	Not Active	Not Active	Not Active	Not Active	–	–	–	–
CC(C)[C@@]1(NC(=O)[C@@H]2C[C@@H]3c4cccc5[nH]cc(c45)C[C@H]3N(C)C2)O[C@@]2(O)[C@@H]3CCCN3C(=O)[C@H](Cc3ccccc3)N2C1=O.CS(=O)(=O)O [DIHYDROERGOCRISTINE MESYLATE]	–	Not Active	Not Active	Not Active	Not Active	Not Active	–	Not Active	Not Active	Not Active	8.18	8.38	8.64	8.90
C1CCC(C(CC2CCCCN2)C2CCCCC2)CC1 (configuration not stated) [PERHEXILINE]	Not Active	Not Active	Not Active	Not Active	Not Active	Not Active	Not Active	Not Active	Not Active	Not Active	–	–	–	–
c1ccc2c(c1)c1cccc3ccc4cccc2c4c31 [BENZO[E]PYRENE]	Not Active	Not Active	Not Active	Not Active	Not Active	Not Active	Not Active	Not Active	Not Active	Not Active	–	–	–	–
CNCCc1ccccn1 [BETAHISTINE]	Not Active	Not Active	Not Active	Not Active	Not Active	Not Active	Not Active	Not Active	Not Active	Not Active	–	–	–	–
Cc1ccccc1N1C(=O)c2cc(S(N)(=O)=O)c(Cl)cc2NC1C (configuration not stated) [METOLAZONE]	Not Active	Not Active	Not Active	Not Active	Not Active	Not Active	Not Active	Not Active	Not Active	Not Active	–	–	–	–
O=C1CC[C@@H](N2C(=O)c3ccccc3C2=O)C(=O)N1	Not Active	Not Active	Not Active	Not Active	Not Active	Not Active	Not Active	Not Active	Not Active	Not Active	–	–	–	–
